In article PMC3074252 (Journal of medicinal chemistry, 2011):
Read-outs that look alike come from different tables or passages of the source.

Experiments:
[1] = test system: PC12 cells expressing G93A SOD1-YFP; assay type: cell-based
[2] = test system: G85R SOD1; test: High content G85R-SOD1 aggregation assay; assay type: cell-based
[3] = mice, 50 mg/kg peritoneally, 1 h after injection
[4] = Sprague-Dawley rats, in PBS
[5] = test system: 68 in vitro radioligand binding assays; settings: 10 μM, in duplicate, 68 assays
[6] = in vivo; settings: Sprague-Dawley, rat, iv, 1 mg/kg

| SMILES | activity in cytotoxicity protection assay [1] | further results |
| --- | --- | --- |
| CCCCN1C(=O)CC(=O)NC1=O [Compound 1, 1-Butylpyrimidine-2,4,6(1H,3H,5H)-trione] | no activity | – |
| O=C1CC(=O)N(C2CCCCC2)C(=O)N1 [Compound 2, 1-Cyclohexylpyrimidine-2,4,6(1H,3H,5H)-trione] | no activity | – |
| O=C1CC(=O)N(CCc2ccccc2)C(=O)N1CCc1ccccc1 [Compound 7, 1,3-Diphenethylpyrimidine-2,4,6(1H,3H,5H)-trione] | – | reduction in aggregates, fluorescence images ([2]; cells treated with MG132 plus 10 μM compound): significant reduction in aggregates; reduction in the number of aggregates of G85R SOD1 ([2]; dose dependence): concentration dependent; blood level [3]: 150 µM; brain level [3]: 50 µM; AUC/Dose ([4]; 1 mg/kg i.v.): 126 ng · h/mL/dose; AUC/Dose ([4]; 1 mg/kg p.o.): 124 ng · h/mL/dose; inhibitory effect across profiling screen [5]: No significant inhibitory effect; clearance [6]: 133 mL/min/kg |
| O=C1CC(=O)N(CCN2CCOCC2)C(=O)N1CCc1ccc(F)cc1 [Compound 34, 1-(4-Fluorophenethyl)-3-(2-morpholinoethyl)pyrimidine-2,4,6(1H,3H,5H)-trione] | inactive | – |
| O=c1cc(Cl)n(CCc2ccccc2)c(=O)n1CCc1ccccc1 [Compound 46, 6-chloro-1,3-diphenethylpyrimidine-2,4(1H,3H)-dione] | inactive | – |
| COc1cc(=O)n(CCc2ccccc2)c(=O)n1CCc1ccccc1 [Compound 47, 6-methoxy-1,3-diphenethylpyrimidine-2,4(1H,3H)-dione] | inactive | – |
| O=C1C(=O)N(CCc2ccccc2)C(=O)N1CCc1ccccc1 [Compound 49, 1,3-Diphenethylimidazolidine-2,4,5-trione] | none was active | – |
| O=C1C(=O)N(C2CCCCC2)C(=O)N1C1CCCCC1 [Compound 51, 1,3-Dicyclohexylimidazolidine-2,4,5-trione] | none was active | – |
| O=C1CCC(=O)N(CCc2ccccc2)C(=O)N1CCc1ccccc1 [Compound 52, 1,3-Diphenethyl-1,3-diazepane-2,4,7-trione] | none was active | – |
